The results in this text go back to article PMC4199771, “Novel Cyclic di-GMP Effectors of the YajQ Protein Family Control Bacterial Virulence” (PLoS Pathogens, 2014).

Data set [1] has as its target T1, XC_3703 (Xanthomonas campestris, UniProt Q4UQD0).
T1 construct: full-length, synthesized gene in pET47b, E. coli BL21(DE3), N-terminal His6 tag cut by 3C protease
The experiment in a line: isothermal titration calorimetry. The class given is binding.

For a further data set, the target named is T2, Clocel_3875 (Clostridium cellulovorans, UniProt D9SKW9).
T2 construct: recombinant, N-terminal His6 tag cleaved with 3C protease
T2 sequence (D9SKW9 entry or part of it): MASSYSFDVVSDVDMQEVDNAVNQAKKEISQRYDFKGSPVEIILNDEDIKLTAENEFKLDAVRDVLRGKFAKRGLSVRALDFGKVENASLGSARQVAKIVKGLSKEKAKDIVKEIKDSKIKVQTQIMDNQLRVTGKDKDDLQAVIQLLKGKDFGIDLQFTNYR
Briefly: biochemical. More on the design: isothermal titration calorimetry of nucleotide binding to purified recombinant YajQ family protein. On the procedure: (§1) The ability of XC_3703 to bind different nucleotides including cyclic di-GMP was further examined using isothermal titration calorimetry (ITC) with the purified protein (see Materials and Methods ). The full-length XC_3703 protein bound cyclic di-GMP with high affinity with a K d of 2 µM (Figure 1B; Table S2). It appeared that binding was endothermic in nature, which is a characteristic of a binding mechanism that favours hydrogen bonding and hydrophobic interactions, [16]. […] The observed binding affinity is within the range of physiological cyclic di-GMP levels observed in Xcc and is similar to the binding affinity of a number of established cyclic di-GMP effector proteins. […] To examine whether cyclic di-GMP binding was a common feature of this family, recombinant YajQ-like proteins from various bacteria including Escherichia coli, Pseudomonas aeruginosa, Stenotrophomonas maltophilia, Bacillus cereus and Clostridium species were purified and their ability to bind different nucleotides was assessed. […] The DNA fragments encoding the proteins of interest were synthesized by Gene Oracle in pGOv4 and sub-cloned into pET47b or pLAFR3 before transformation into E. coli BL21 (DE3). Genomic regions are described in Table S7. BL21 (DE3) cells were grown in LB media and induced with 0.25 mM IPTG; protein overexpression was carried out at 37°C for 1 h. Purification was achieved by Ni^2+ affinity chromatography using the N-terminal His6 tag followed by tag cleavage using recombinant 3C protease.

The target of the next data set is T3, YajQ (Escherichia coli, UniProt P0A8E7).
T3 construct: recombinant, N-terminal His6 tag cleaved with 3C protease
T3 sequence (P0A8E7 whole entry): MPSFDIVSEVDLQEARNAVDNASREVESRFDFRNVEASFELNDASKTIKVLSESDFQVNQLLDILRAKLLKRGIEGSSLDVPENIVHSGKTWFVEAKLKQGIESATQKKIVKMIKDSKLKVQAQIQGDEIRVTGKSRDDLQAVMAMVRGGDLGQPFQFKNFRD
Briefly: biochemical. More on the design: isothermal titration calorimetry of nucleotide binding to purified recombinant YajQ family protein. As for the experimental part:
as §1

Data set [2] deals with T4, XC_3703 (YajQ family) (Xanthomonas campestris pv. campestris 8004) (UniProt Q4UQD0).
T4 sequence: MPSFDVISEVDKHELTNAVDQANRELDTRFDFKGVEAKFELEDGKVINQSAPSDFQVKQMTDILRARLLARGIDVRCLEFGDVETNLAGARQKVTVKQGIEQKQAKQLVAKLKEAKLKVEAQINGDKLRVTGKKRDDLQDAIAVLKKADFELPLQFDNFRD
Briefly: EMSA.

In the next data set the target is T5, Smlt4090 (Stenotrophomonas maltophilia, UniProt B2FHW7).
T5 construct: recombinant, synthesized gene in pET47b, E. coli BL21(DE3), N-terminal His6 tag cut by 3C protease
T5 sequence (B2FHW7 whole entry): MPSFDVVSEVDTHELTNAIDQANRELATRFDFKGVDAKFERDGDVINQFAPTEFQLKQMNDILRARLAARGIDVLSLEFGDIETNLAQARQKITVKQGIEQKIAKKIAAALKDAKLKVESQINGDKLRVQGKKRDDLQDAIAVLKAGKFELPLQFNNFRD
The experiment in a line: isothermal titration calorimetry. The class given is binding. An excerpt: isothermal titration calorimetry on Smlt4090 | YajQ family proteins from P. aeruginosa (PA4395) and S. maltophilia (Smlt4090)

The target in a further data set is T6, PA4395 (Pseudomonas aeruginosa, UniProt Q9HW11).
T6 construct: recombinant, synthesized gene in pET47b, E. coli BL21(DE3), N-terminal His6 tag cut by 3C protease; locus tag is of strain PAO1 (PA14 used in mice)
T6 sequence (Q9HW11 whole entry): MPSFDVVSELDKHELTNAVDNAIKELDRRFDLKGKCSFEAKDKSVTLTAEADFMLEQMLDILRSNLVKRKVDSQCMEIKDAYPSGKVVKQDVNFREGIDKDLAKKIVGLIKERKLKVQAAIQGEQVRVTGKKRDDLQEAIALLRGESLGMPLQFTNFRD
The experiment in a line: isothermal titration calorimetry. The class given is binding. An excerpt:
isothermal titration calorimetry on PA4395 | affinity for cyclic di-GMP binding was only seen in YajQ family proteins from P. aeruginosa (PA4395)

Data set [3] has as its target T1, XC_3703. The experiment in a line: biochemical. Further details: isothermal titration calorimetry of nucleotide binding to purified recombinant YajQ family protein. As for the experimental part:
as §1

Take `Nc1nc2c(ncn2[C@@H]2O[C@H](COP(=O)(O)OP(=O)(O)OP(=O)(O)O)[C@@H](O)[C@H]2O)c(=O)[nH]1` [GTP]: the results for the Kd on XC_3703 [1] (read-out: Kd), at Clocel_3875 and at YajQ were 13000 µM, 31 µM and 34.3 µM, respectively.

`Nc1ncnc2c1ncn2[C@@H]1O[C@@H]2COP(=O)(O)O[C@H]3[C@@H](O)[C@H](n4cnc5c(N)ncnc54)O[C@@H]3COP(=O)(O)O[C@H]2[C@H]1O` [cyclic di-AMP]: on XC_3703 [1], the Kd was 900 µM.

Consider “GGCATCGAACCGGCCGCACGTTTCGCGGCTGTTGTGCAGTGAATACGTATGCACAGGGTCAATGCTGCGCCGCGATGCGCGCTTAGCATCACCGCGCGCCGCACGCCGTGGGGCGCGCTTTCCGGAACAGGGGCCGGAGGGCATTGCTGCATGCATCGCTGTGCGGGATGCGTGCGTCCACTGATCAGGAGACACACCCG (double strand) [aaeB promoter probe]”, for which the binding result in data set [2] is “no binding”.

Consider `Nc1ncnc2c1ncn2[C@@H]1O[C@H](COP(=O)(O)OP(=O)(O)OP(=O)(O)O)[C@@H](O)[C@H]1O` [ATP], for which the Kd on XC_3703 [1] (read-out: Kd) is 3000 µM; on Clocel_3875 it was 21.1 µM; on YajQ it was 28.2 µM.

For the molecule `Nc1nc2c(ncn2[C@@H]2O[C@@H]3CO[P@](=O)(O)O[C@H]4[C@@H](O)[C@H](n5cnc6c(=O)[nH]c(N)nc65)O[C@@H]4CO[P@](=O)(O)O[C@H]3[C@H]2O)c(=O)[nH]1` [cyclic di-GMP], the Kd was 7.91 µM on Smlt4090, 6.98 µM at PA4395, 2 µM at XC_3703 [1] and 2.2 µM at XC_3703 [3].
